According to paper PMC5995566 (Biochemistry, 2017):
No end group written: not given here.

What was measured:
[1] = molecular target: T1, human S100A5 (hA5) (Homo sapiens, UniProt P33763); experiment: ITC of peptide binding to human S100A5; conditions: 2 mM CaCl2, pH 7.4
T1 sequence (P33763 1-92): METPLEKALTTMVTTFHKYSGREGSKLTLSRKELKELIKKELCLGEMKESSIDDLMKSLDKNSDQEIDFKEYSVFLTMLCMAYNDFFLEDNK

[2] = molecular target: human S100A6 (hA6) (Homo sapiens, UniProt P06703); experiment: ITC of peptide binding to human S100A6; conditions: single-site model
[3] = tested on: hA5 A83m; experiment: ITC of peptide binding to hA5 A83m mutant; set-up: species or system Homo sapiens; conditions: single ancestral reversion in hA5
[4] = tested on: S100A6 orthologs; experiment: ITC of peptide binding to S100A6 orthologs; conditions: 2 mM CaCl2, pH 7.4
[5] = tested on: ancA6 (last common ancestor of S100A6 orthologs); experiment: ITC of peptide binding to reconstructed ancestor ancA6

SEGLMNVLKKIYEDGDDDMKRTINKAWVESR [SIP] was tested, and the “binding to hA5 (in words)” value [1] was “did not bind”, the fx comp ([2]; ITC fit parameter, same buffer) was 1.5 ± 0.1 and the “ΔH°” value ([2]; ITC, 25 mM TES, 100 mM NaCl, 2 mM CaCl2, 1 mM TCEP, pH 7.4, Bayesian fit) was 2.9 ± 0.3 kcal/mol. The “binding to hA5 A83m (in words)” value [3] was “enabled it to bind”, the “binding to all S100A6 orthologs (in words)” value [4] was “bound” and the “binding to ancA6 (in words)” value [5] was “binding”.
